Measured values from patent publication US20230382916A1, “HETEROARYL HETEROCYCLIC COMPOUNDS AND USES THEREOF” (HUTCHISON MEDIPHARMA LIMITED, priority 2020, published 2023).

Legend:
[1] = test system: idiopathic thrombocytopenic purpura induced by anti-mouse CD41 antibodies; assay: Idiopathic thrombocytopenic purpura induced by anti-CD41 antibody in mice, level of platelets; assay type: in vivo; details: 40 mg/kg oral single dose
Experimental: Male C57BL/6 mice were purchased from Shanghai Lingchang Biotechnology Co., Ltd. (certificate number 20180003011079, initial body weight of 18-20 grams), and were randomly grouped according to Table 4, with 8 mice in each group. […] When modeling, each mouse was intraperitoneally injected with 200 μL of PBS solution containing […] of anti-mouse CD41 antibodies (BD, Cat #: 553487, Lot #: 7026765).
Eight hours and twenty-four hours after modeling, the whole blood was collected and placed in a centrifuge tube coated with 10% citrate-phosphate-dextrose-adenine (CPDA), and the level of platelets (PLT) in the whole blood was measured by an XT-2000i (SYSMEX) automatic blood analyzer (Shanghai Laboratory Animal Research Centre Sino-British SIPPR/B & K Lab Animal Ltd).
The average level of platelets in peripheral blood was analyzed with Graphpad statistical software by one way ANOVA followed by Fisher LSD multiple comparison test, and the p value was calculated, wherein *p<0.05 indicated a statistically significant difference compared with the vehicle control group, **p<0.01 indicated a statistically extremely significant difference compared with the vehicle control group, and ##p<0.01 indicated a statistically extremely significant difference compared with the normal group.
RR %=(PLTtreatment−PLTmodel)/(PLTnaive−PLTmodel)×100%.

BTK recombinant protein = BTK recombinant protein (Homo sapiens (Human), UniProt Q06187); assay: Determination of biochemical BTK (Z'-LYTE kinase assay); details: 32 μM ATP
BTK recombinant protein, sequence (Q06187 whole entry): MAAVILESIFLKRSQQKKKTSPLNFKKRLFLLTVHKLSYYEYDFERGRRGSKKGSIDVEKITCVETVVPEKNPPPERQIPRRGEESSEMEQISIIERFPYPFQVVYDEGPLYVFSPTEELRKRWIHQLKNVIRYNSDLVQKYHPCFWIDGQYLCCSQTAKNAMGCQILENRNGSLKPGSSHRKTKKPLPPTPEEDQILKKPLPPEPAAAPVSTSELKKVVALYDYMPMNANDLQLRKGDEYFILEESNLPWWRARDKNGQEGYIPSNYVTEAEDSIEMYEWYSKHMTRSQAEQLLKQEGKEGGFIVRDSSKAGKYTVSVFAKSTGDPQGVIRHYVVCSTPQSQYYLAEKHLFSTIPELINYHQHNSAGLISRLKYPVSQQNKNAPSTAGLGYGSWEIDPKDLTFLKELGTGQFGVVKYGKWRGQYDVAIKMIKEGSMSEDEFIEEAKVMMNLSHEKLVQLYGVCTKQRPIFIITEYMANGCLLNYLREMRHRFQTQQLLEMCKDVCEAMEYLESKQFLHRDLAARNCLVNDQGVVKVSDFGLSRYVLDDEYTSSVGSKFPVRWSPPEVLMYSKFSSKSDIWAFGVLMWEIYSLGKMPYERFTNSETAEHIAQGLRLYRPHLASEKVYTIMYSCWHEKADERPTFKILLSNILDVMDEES
Text: BTK recombinant protein: Invitrogen, Cat #PV3363;
Z′-LYTE® kinase test kit-tyrosine 1 peptide: Invitrogen, Cat #PV3190;
Z′-LYTE® biochemical assay employs a fluorescence resonance energy transfer (FRET)-based, coupled-enzyme format and is based on the differential sensitivity of phosphorylated and non-phosphorylated peptides to proteolytic cleavage. Both ends of the short peptide substrate are labeled with two fluorescent groups to form a FRET paired combination. In the primary reaction (the Kinase Reaction), the kinase transfers the γ-phosphate of ATP to a single […] residue on the short peptide substrate. In the secondary reaction (the development reaction), the non-phosphorylated short peptides were recognized and cleaved by a site-specific protease (the development reagent). Phosphorylated short peptides can resist such cleavage. Cleavage of short peptides can disrupt the donor (such as coumarin) and receptor fluorophores (fluorescein) on the short peptides, while the phosphorylated short peptides can maintain FRET. The calculation method of the ratio is as follows, and the ratio of the respective emission signals generated by the donor fluorophores emitted (after excitation at 400 nm) to the receptors is calculated. Emission signal ratio=emitted light by coumarin (445 nm)/emitted light by fluorescein (520 nm). If the FRET short peptide is phosphorylated (such as no kinase inhibitor), the emitted light ratio will remain in a lower level. If the FRET short peptide is non-phosphorylated (such as kinase inhibitor), the emitted light ratio will be in a higher level. In this way, the inhibitory effects of different compound inhibitors on BTK kinase activity would be distinguished.
The experiment was carried out according to the instructions of the Z′-LYTE® kinase test kit-tyrosine 1 peptide. Reagent preparation: 1.33× kinase buffer: 5× kinase buffer was diluted with water to 1.33× kinase buffer; an enzyme solution: the kinase was dissolved in 1.33× kinase buffer with the final working concentration being 3.32 nM; a short peptide solution: a short peptide stock solution (1 mM dissolved in DMSO) was dissolved in 1.33× kinase buffer with the final working concentration being 2 μM; Z′-LYTE Tyr01 phosphorylated short peptide solution, 0.6 μl of stock solution (1 mM dissolved in DMSO) was dissolved in 149.4 μl of 1.33× kinase buffer; an ATP solution: an ATP stock solution (10 mM aqueous solution) was dissolved in 1.33× kinase buffer with the final working concentration being 32 μM; a color-developing solution: color-developing solution B was dissolved in color-developing buffer with the final working concentration being 1× color-developing solution; 4× compound preparation: the compound was diluted in 3-fold gradient concentration to finally obtain 4% DMSO aqueous solution containing different concentrations of the compound, with the final working concentration being 3000, 1000, 333.33, 111.11, 37.04, 12.35, 4.12, 1.37 nM, 8 concentration points in total.
Specific steps of the experiment: In the experiment, there were three control groups, each with 8 replicate wells, which were C1 100% inhibition group (no ATP), C2 0% inhibition group (with ATP), and C3 100% phosphorylation group, respectively. 2.5 μl of serially diluted compound was added to each well of a 384-well plate, with double replicate wells, and 4% DMSO solution was added to wells C1, C2, and C3. After that, except for wells C3, 2.5 μl of BTK enzyme solution was added to each remaining well, which was left to stand at 4° C. for 30 minutes. After that, except for wells C3, 2.5 μl of short peptide solution was added to each well, and 5 μl of phosphorylated short peptide solution was added to each of wells C3. 2.5 μl of 1.33× kinase buffer was added to each of wells C1 and C3, and 2.5 μl of ATP solution was added to each of the remaining wells. The wells were centrifuged transiently, and the plate was shaken at 1000 rpm for 30 seconds to perform transient centrifuge. […]

SMILES	recovery rate of platelets ([1]; 8 hours after modeling) [%]	recovery rate of platelets ([1]; 24 hours after modeling) [%]	IC50 (BTK recombinant protein) [nM]
CC(C)(/C=C(\C#N)C(=O)N1CCC[C@@H](n2nc(-c3ccc(Oc4ccccc4)cc3F)c3c(N)ncnc32)C1)N1CCN(C2COC2)CC1 [PRN1008, rilzabrutinib, reference compound]	40	16	
C[C@H]1CN(C2COC2)C[C@H](C)N1c1ccc(Nc2cc(-c3ccnc(-n4ccn5c6c(c(F)c5c4=O)CCCC6)c3CO)cn(C)c2=O)nc1 [Compound 3]			3
C[C@H]1CN(C)C[C@H](C)N1c1ccc(Nc2cc(-c3ccnc(-n4ccn5c6c(cc5c4=O)CC(C)(C)C6)c3CO)cn(C)c2=O)nc1 [Compound 6, 2-(3′-(hydroxymethyl)-1-methyl-6-oxo-5-((5-((2S,6S)-2,4,6-trimethylpiperazin-1-yl)pyridin-2-yl)amino)-1,6-dihydro-[3,4′-bipyridin]-2′-yl)-7,7-dimethyl-7,8-dihydro-2H-cyclopenta[4,5]pyrrolo[1,2-a]pyrazin-1(6H)-one]			7
